Results: US20260250290A1 (BRISTOL-MYERS SQUIBB COMPANY, priority 2023, published 2026)

These molecules were tested against T1, full length SGK1 (Homo sapiens, UniProt O00141) (assay: SGK1 inhibition Assay A (Caliper LabChip electrophoretic separation of fluorescent peptide substrate and phosphorylated product)). Settings: Assay A; 20 μM ATP, 40 min incubation; read-out: SGK1 IC50.
T1 construct: 125 μM full length SGK1 (Life Technologies Part #PR7358A); purchased Life Technologies PR7358A
T1 sequence (O00141 1-431): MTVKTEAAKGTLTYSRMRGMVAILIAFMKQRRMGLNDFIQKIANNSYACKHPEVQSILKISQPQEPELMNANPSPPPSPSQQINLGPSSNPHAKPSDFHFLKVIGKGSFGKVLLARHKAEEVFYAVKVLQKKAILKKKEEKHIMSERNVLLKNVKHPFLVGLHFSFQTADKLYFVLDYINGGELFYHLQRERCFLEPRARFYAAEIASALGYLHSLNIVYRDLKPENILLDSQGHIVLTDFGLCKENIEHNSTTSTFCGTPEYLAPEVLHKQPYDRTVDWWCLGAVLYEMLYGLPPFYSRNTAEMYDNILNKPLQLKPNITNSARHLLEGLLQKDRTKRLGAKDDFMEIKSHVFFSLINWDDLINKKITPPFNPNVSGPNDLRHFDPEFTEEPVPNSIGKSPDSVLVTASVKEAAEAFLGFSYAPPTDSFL
Assay type: biochemical

In order of rising IC50:
1. Nc1ncnn2c(C3=CCN(C(=O)c4ccon4)C3)cc(N3CCC[C@@H](NC(=O)c4ccc(Cl)s4)C3)c12 [Example 882, (R)-N-(1-(4-amino-7-(1-(isoxazole-3-carbonyl)-2,5-dihydro-1H-pyrrol-3-yl)pyrrolo[2,1-f][1,2,4]triazin-5-y1)piperidin-3-y1)-5-chlorothiophene-2-carboxamide]  1 nM
2. CN(C)CCOc1cc(Cl)sc1C(=O)N[C@@H]1CCCN(c2cc(-c3ccc4cnoc4c3)n3ncnc(N)c23)C1 [Example 872, (R)—N-(1-(4-amino-7-(benzo[d]isoxazol-6-yl)pyrrolo[2,1-f][1,2,4]triazin-5-yl)piperidin-3-yl)-5-chloro-3-(2-(dimethylamino)ethoxy)thiophene-2-carboxamide]  3 nM
3. Nc1ncnn2c(-c3ccc4cnoc4c3)cc(N3CCC[C@@H](NC(=O)c4ccc(Cl)s4)C3)c12 [Example 871, (R)—N-(1-(4-amino-7-(benzo[d]isoxazol-6-yl)pyrrolo[2,1-f][1,2,4]triazin-5-yl)piperidin-3-yl)-5-chlorothiophene-2-carboxamide]  6 nM
4. NCCC(=O)N1CC=C(c2cc(N3CCC[C@@H](NC(=O)c4ccc(Cl)s4)C3)c3c(N)ncnn23)C1 [Example 883, (R)-N-(1-(4-amino-7-(1-(3-aminopropanoy1)-2,5-dihydro-1H-pyrrol-3-yl)pyrrolo[2,1-f][1,2,4]triazin-5-y1)piperidin-3-y1)-5-chlorothiophene-2-carboxamide]  6 nM
5. NCC(=O)N1CC=C(c2cc(N3CCC[C@@H](NC(=O)c4ccc(Cl)s4)C3)c3c(N)ncnn23)C1 [Example 881, (R)-N-(1-(4-amino-7-(1-glycyl-2,5-dihydro-1H-pyrrol-3-y1)pyrrolo[2,1-f][1,2,4]triazin-5-yl)piperidin-3-y1)-5-chlorothiophene-2-carboxamide]  7 nM
6. Nc1ncnn2c(C3=CCN(C(=O)c4ccns4)C3)cc(N3CCC[C@@H](NC(=O)c4ccc(Cl)s4)C3)c12 [Example 885, (R)-N-(1-(4-amino-7-(1-(isothiazole-5-carbonyl)-2,5-dihydro-1H-pyrrol-3-yl)pyrrolo[2,1-f][1,2,4]triazin-5-y1)piperidin-3-y1)-5-chlorothiophene-2-carboxamide]  8 nM
7. Nc1ncnn2c(C3=CCN(C(=O)c4nccs4)C3)cc(N3CCC[C@@H](NC(=O)c4ccc(Cl)s4)C3)c12 [Example 880, (R)—N-(1-(4-amino-7-(1-(thiazole-2-carbonyl)-2,5-dihydro-1H-pyrrol-3-yl)pyrrolo[2,1-f][1,2,4]triazin-5-yl)piperidin-3-yl)-5-chlorothiophene-2-carboxamide]  15 nM
8. Cc1nc(-c2cc(C(=O)N3CC=C(c4cc(N5CCC[C@@H](NC(=O)c6ccc(Cl)s6)C5)c5c(N)ncnn45)C3)no2)cs1 [Example 884, (R)-N-(1-(4-amino-7-(1-(5-(2-methylthiazol-4-yl)isoxazole-3-carbony1)-2,5-dihydro-1H-pyrrol-3-yl)pyrrolo[2,1-f][1,2,4]triazin-5-y1)piperidin-3-y1)-5-chlorothiophene-2-carboxamide]  99 nM
9. Cn1cc(-c2cc(N3CCC[C@@H](NC(=O)c4ccc(Cl)s4)C3)c3c(N)ncnn23)nn1 [Example 868, (R)—N-(1-(4-amino-7-(1-methyl-1H-1,2,3-triazol-4-yl)pyrrolo[2,1-f][1,2,4]triazin-5-yl)piperidin-3-yl)-5-chlorothiophene-2-carboxamide]  114 nM
10. Nc1ncnn2c(-c3cn(CCC(=O)O)nn3)cc(N3CCC[C@@H](NC(=O)c4ccc(Cl)s4)C3)c12 [Example 864, (R)-3-(4-(4-amino-5-(3-(5-chlorothiophene-2-carboxamido)piperidin-1-yl)pyrrolo[2,1-f][1,2,4]triazin-7-yl)-1H-1,2,3-triazol-1-yl)propanoic acid]  120 nM
11. CC(=O)N1CC=C(c2cc(N3CCC[C@@H](NC(=O)c4ccon4)C3)c3c(N)ncnn23)C1 [Example 879, (R)—N-(1-(7-(1-acetyl-2,5-dihydro-1H-pyrrol-3-yl)-4-aminopyrrolo[2,1-f][1,2,4]triazin-5-yl)piperidin-3-yl)isoxazole-3-carboxamide]  149 nM
12. Nc1ncnn2c(-c3cn(CC(=O)O)nn3)cc(N3CCC[C@@H](NC(=O)c4ccc(Cl)s4)C3)c12 [Example 867, (R)-2-(4-(4-amino-5-(3-(5-chlorothiophene-2-carboxamido)piperidin-1-yl)pyrrolo[2,1-f][1,2,4]triazin-7-yl)-1H-1,2,3-triazol-1-yl)acetic acid]  213 nM
13. CC(=O)N1CC=C(c2cc(N3CCC[C@@H](NC(=O)N4CCCC4)C3)c3c(N)ncnn23)C1 [Example 876, (R)-N-(1-(7-(1-acctyl-2,5-dihydro-1H-pyrrol-3-yl)-4-aminopyrrolo[2,1-f][1,2,4]triazin-5-yl)piperidin-3-yl)pyrrolidine-1-carboxamide]  264 nM
14. CC(=O)N1CC=C(c2cc(N3CCC[C@@H](NC(=O)N4CC[C@H](O)C4)C3)c3c(N)ncnn23)C1 [Example 875, (S)-N-((R)-1-(7-(1-acetyl-2,5-dihydro-1H-pyrrol-3-yl)-4-aminopyrrolo[2,1-f][1,2,4]triazin-5-yl)piperidin-3-yl)-3-hydroxypyrrolidine-1-carboxamide]  477 nM
15. CC(=O)N1CC=C(c2cc(N3CCC[C@@H](NC(=O)N4CC[C@@H](O)C4)C3)c3c(N)ncnn23)C1 [Example 874, (R)—N—((R)-1-(7-(1-acetyl-2,5-dihydro-1H-pyrrol-3-yl)-4-aminopyrrolo[2,1-f][1,2,4]triazin-5-yl)piperidin-3-yl)-3-hydroxypyrrolidine-1-carboxamide]  482 nM
16. Nc1ncnn2c(-c3cn(C4CCNC4)nn3)cc(N3CCC[C@@H](NC(=O)c4ccc(Cl)s4)C3)c12 (stereo partly drawn) [Example 866, N-((3R)-1-(4-amino-7-(1-(pyrrolidin-3-yl)-1H-1,2,3-triazol-4-yl)pyrrolo[2,1-f][1,2,4]triazin-5-yl)piperidin-3-yl)-5-chlorothiophene-2-carboxamide]  517 nM
17. NC(=O)Cn1cc(-c2cc(N3CCC[C@@H](NC(=O)c4ccc(Cl)s4)C3)c3c(N)ncnn23)nn1 [Example 865, (R)—N-(1-(4-amino-7-(1-(2-amino-2-oxoethyl)-1H-1,2,3-triazol-4-yl)pyrrolo[2,1-f][1,2,4]triazin-5-yl)piperidin-3-yl)-5-chlorothiophene-2-carboxamide]  731 nM
18. CC(=O)N1CC=C(c2cc(N3CCC[C@@H](NC(=O)Oc4ccccc4)C3)c3c(N)ncnn23)C1 [Example 873, phenyl (R)-(1-(7-(1-acetyl-2,5-dihydro-1H-pyrrol-3-yl)-4-aminopyrrolo[2,1-f][1,2,4]triazin-5-yl)piperidin-3-yl)carbamate]  936 nM

Same assay, conditions: SGK1 IC50, Assay A; 20 μM ATP, 40 min incubation

In order of rising IC50:
1. CC(=O)N1CC=C(c2cc(N3CCC[C@@H](NC(=O)c4ccc(S(=O)(=O)F)cc4)C3)c3c(N)ncnn23)C1 [Example 870, (R)-4-((1-(7-(1-acetyl-2,5-dihydro-1H-pyrrol-3-yl)-4-aminopyrrolo[2,1-f][1,2,4]triazin-5-yl)piperidin-3-yl)carbamoyl)benzenesulfonyl fluoride]  32 nM
2. CC(=O)N1CC=C(c2cc(N3CCC[C@@H](NC(=O)c4cccc(S(=O)(=O)F)c4)C3)c3c(N)ncnn23)C1 [Example 869, (R)-3-((1-(7-(1-acetyl-2,5-dihydro-1H-pyrrol-3-yl)-4-aminopyrrolo[2,1-f][1,2,4]triazin-5-yl)piperidin-3-yl)carbamoyl)benzenesulfonyl fluoride]  125 nM
